Laboratory results taken from patent US9885704B2, “Reagents and methods for cancer treatment and prevention” (priority 2006, dated 2018).

Columns and labels:
HeLa cells = test: Pro-inflammatory cytokine release from THP-1 after exposure to compound-treated HeLa cells (ELISA); format: cell-based, human; settings: for TNF-α secretion / immunostimulatory activity: HeLa cells treated with compound, FIG. 1
Protocol: The human cervical epithelium cell line HeLa and the mouse B16-F10 melanoma were purchased from American TCC and maintained in Dulbecco's modified eagle's media [D-MEM (Cellgro®, Herndon Va.)] supplemented with 10% fetal bovine serum (Sigma-Aldrich, St. Louis, Mo.). All cell stress/death-related treatments described below were performed using HeLa cells in initial screens. The human promonocytic leukemia THP-1 (ATCC, Manassas Va.) and pro-macrophage MonoMac6 cells were utilized as the reporter antigen presenting cells utilized in this study. Ziegler-Heitbrock et al., “Establishment of a human cell line (Mono Mac 6) with characteristics of mature monocytes” Int. J. Cancer 41:456-461 (1988). Both lines were maintained in RPMI-1640 media (Cellgro®) supplemented with 10% fetal bovine serum. Unless otherwise noted, all cells were maintained at 37° C. in a humidified incubator supplemented with 5% CO2.
The following list includes the small molecule compounds evaluated in this study: thapsigargin, thapsigargicin (MP Biomedicals, Irvine Calif.), 1,2-bis(o-aminophenoxy)ethane-N,N,N′,N′-tetraacetic Acid Tetra(acetoxymethyl) ester [BAPTA-AM, (EMD Biosciences, San Diego, Calif.)], ethyleneglycol-bis(β-aminoethyl)-N,N,N′,N′-tetraacetoxymethyl ester [EGTA-AM (EMD Biosciences)], 1,2-bis(2-aminophenoxy)ethane-N,N,N′,N′-tetraacetic acid […], tetrandrine, KCl, Amyloid peptide Aβ1-42, 1-Oleoyl-2-acetyl-sn-glycerol (OAG), calcimycin A23187, 2-aminoethyl diphenylborinate (2-APB), histamine, cyclopiazonic acid, 2,5-di-(t-butyl)-1,4-hydroquinone [BHQ (EMD Biosciences)], GdCl3, nicardipine hydrochloride, 1-(o-chloro-α,αdiphenylbenzyl)imidazole (clotrimazole), apamin, charybdotoxin, radicicol, brefeldin A, tunicamycin, tamoxifen, ionomycin, staurosporine, cis-diammineplatinum(II) dichloride (cisplatin), paclitaxel, methotrexate, cycloheximide, and rapamycin. Unless otherwise noted, all compounds were purchased from Sigma-Aldrich. Compounds were dissolved per manufacturer's recommendations prior to addition to HeLa cells in a range of concentrations based on the published literature and incubated between 1 minute to two days. The known mediators of inflammation pam3cys-ser-(lys)4, hydrochloride (Pam3Cys), bacterial flagellin, and lipopolysaccharide were purchased from EMD Biosciences.
Following cell stress/death, resulting cells/cell debris were collected, washed 3 times with excess phosphate-buffered saline, rapidly cycled through freeze/thaw (−80° C. to 25° C.) three times, and quantified by UV spectrophotometry (A280). To determine the presence of pro-inflammatory signals within stressed/dead cells, 40 μg of stressed/dead cell were added to 50,000 THP-1 and incubated for 18 hours. Supernatants were assessed for the presence of pro-inflammatory cytokines including tumor necrosis factor-α (TNF-α), interleukin 8 (IL-8), and IL-12 using commercially available ELISA systems.
A variety of different potential cell stress and cell death inducing agents were screened. […] (See FIG. 1).

[1] = test system: NF-κB promoter (MonoMac-6 Clone C5); test: NF-κB promoter luciferase reporter, MonoMac-6 Clone C5; format: cell-based, human; settings: FIG. 11
From the text: A stably transfected DNA construct encoding a NF-κB promoter driving firefly luciferase expression was integrated into: i) human pre-monocytic cell line THP-1; and ii) human premonocytic cell line MonoMac-6. Briefly, DNA encoding a concatemerized NF-κB response element upstream of the firefly luciferase gene [Ting et al., “RIP mediates tumor necrosis factor receptor 1 activation of NF-kappaB but not Fas/APO-1-initiated apoptosis” EMBO J. November 15; 15(22):6189-96(1996)] was subcloned into the pEAK8 vector backbone (Edge Biosystems, Gaithersburg Md.) by standard molecular biology techniques. Electroporations were performed using 10 μg of DNA and 700,000 THP-1 or MonoMac6 cells using a Biorad Gene Pulser II electroporator (Biorad, Hercules Calif.), 0.4 cm electrocuvettes, and 200 V, 950 μF. Following electroporation, cells were allowed to recover for two days prior to selection with 300 ng/ml puromycin aminonucleoside (Sigma-Aldrich) for the generation of stably transfected clones. Luciferase expression was quantified using a Top Count NXT luminometer (Perkin Elmer, Wellesley Mass.). Briefly, 50,000 reporter cells were incubated with indicated concentrations of the mediators of inflammation listed for 18 hours in 96-well white plates prior to harvest and analysis.
A second stable NF-κB reporter construct transfectant was created using MonoMac-6 cells. […]

[2] = test system: NF-κB promoter (THP-1 Clone A9); test: NF-κB promoter luciferase reporter, THP-1 Clone A9; format: cell-based, human; settings: 50,000 reporter cells, 18 hours; FIG. 10
From the text: A stably transfected DNA construct encoding a NF-κB promoter driving firefly luciferase expression was integrated into: i) human pre-monocytic cell line THP-1; and ii) human premonocytic cell line MonoMac-6. Briefly, DNA encoding a concatemerized NF-κB response element upstream of the firefly luciferase gene [Ting et al., “RIP mediates tumor necrosis factor receptor 1 activation of NF-kappaB but not Fas/APO-1-initiated apoptosis” EMBO J. November 15; 15(22):6189-96(1996)] was subcloned into the pEAK8 vector backbone (Edge Biosystems, Gaithersburg Md.) by standard molecular biology techniques. Electroporations were performed using 10 μg of DNA and 700,000 THP-1 or MonoMac6 cells using a Biorad Gene Pulser II electroporator (Biorad, Hercules Calif.), 0.4 cm electrocuvettes, and 200 V, 950 μF. […] Luciferase expression was quantified using a Top Count NXT luminometer (Perkin Elmer, Wellesley Mass.). […]
The THP-1-derived clone A9 recognition of the TLR ligands Pam-3-Cys (signaling through TLR2) and bacterial flagellin (signaling through TLR5), but not bacterial lipopolysaccharide (signaling through TLR4) was determined by monitoring NF-κB activity in 96-well white plate automated assays during TG incubation. […]

[3] = test system: Ca(2+)-ATPase from sarcoplasmic and endoplasmic reticula; settings: activity not further specified; context Ca(2+)-ATPase inhibitory potency; cited from earlier work

| Molecule | TNF-α secretion / immunostimulatory activity (HeLa cells) | further results |
| --- | --- | --- |
| CC(=O)O[C@H]1C(=O)[C@@]2(C)[C@H]([C@H](OC(=O)c3ccccc3)[C@]3(O)C[C@H](OC(=O)[C@H](O)[C@@H](NC(=O)c4ccccc4)c4ccccc4)C(C)=C1C3(C)C)[C@]1(OC(C)=O)CO[C@@H]1C[C@@H]2O [Taxol®, paclitaxel] | did not induce immunostimulatory activity | – |
| tunicamycin | did not induce immunostimulatory activity | – |
| C[C@@H]1C[C@@H]([C@H](O)CC2CC(=O)NC(=O)C2)C(=O)[C@@H](C)C1 [cycloheximide] | did not induce immunostimulatory activity | – |
| bacterial lipopolysaccharide | – | recognition (NF-κB activity, luciferase) [1]: improved recognition |
| pam3cys-ser-(lys)4, hydrochloride | – | recognition (NF-κB activity, luciferase) [2]: recognition; recognition (NF-κB activity, luciferase) [1]: recognized |
| C/C=C(/C)C(=O)O[C@H]1C(C)=C2[C@H]([C@@H]1OC(=O)CCCCC)[C@@](C)(OC(C)=O)C[C@H](OC(=O)CCC)[C@@]1(O)[C@H]2OC(=O)[C@@]1(C)O [Thapsigargicin] | – | secretion of IL-8 from THP-1 (HeLa cells; treated HeLa cells, monocyte cell line THP-1, FIG. 2): activated a dose-dependent secretion of IL-8 |
| C/C=C(/C)C(=O)O[C@@H]1C[C@H]2[C@@H]([C@H]1C)[C@@H]1OC(=O)[C@@](C)(O)[C@@]1(O)C(OC(=O)[C@@H](C)CC)C[C@]2(C)OC(C)=O (stereo partly shown) [compound 77] | – | activity of synthetic thapsigargin analogue [3]: potent activity |
| C[C@H]1CCC/C=C/[C@@H]2C[C@H](O)C[C@H]2[C@H](O)/C=C/C(=O)O1 [brefledin A, brefeldin A] | did not induce immunostimulatory activity | – |
| CNc1ccc2oc(C[C@H]3O[C@@]4(CC[C@H]3C)O[C@H]([C@H](C)C(=O)c3ccc[nH]3)[C@H](C)C[C@H]4C)nc2c1C(=O)O [calcimycin, calcimycin A23187] | did not induce immunostimulatory activity | – |
